A short description of data set [1]: Anionophoric activity across egg yolk phosphatidylcholine-based liposomal membrane vesicles (unknown origin) assessed as efflux of chloride anions at 3 mol% after 300 seconds in presence of Li+ by electrode technique. In kind it is ADME. Conditions: artificial membrane, 5 min.
The nature of data set [2]: Anionophoric activity across egg yolk phosphatidylcholine-based liposomal membrane vesicles (unknown origin) assessed as efflux of chloride anions at 3 mol% after 300 seconds in presence of Na+ by electrode technique. Type of data set: ADME. The note with it: artificial membrane, 5 min.
The nature of data set [3]: Anionophoric activity across egg yolk phosphatidylcholine-based liposomal membrane vesicles (unknown origin) assessed as efflux of chloride anions at 3 mol% after 300 seconds in presence of Rb+ by electrode technique. In kind it is ADME. Conditions: artificial membrane, 5 min.
A short description of data set [4]: Anionophoric activity across egg yolk phosphatidylcholine-based liposomal membrane vesicles (unknown origin) assessed as efflux of chloride anions after 300 seconds in presence of sodium nitrate in external solution by electrode technique. Type of data set: ADME. Conditions: artificial membrane, 5 min.
Data set [5] is described as follows: Anionophoric activity across 70% POPC/30% cholesterol-based liposomal membrane vesicles (unknown origin) assessed as induction of pH discharge at 3 mol% after 20 mins by fluorescence based pyranine entrap assay.
Data set [6] in a line: Anionophoric activity across egg yolk phosphatidylcholine-based liposomal membrane vesicles (unknown origin) assessed as induction of pH discharge at 3 mol% after 20 mins in presence of NO3- by fluorescence based pyranine entrap assay. Conditions: artificial membrane.
A short description of data set [7]: Anionophoric activity across egg yolk phosphatidylcholine-based liposomal membrane vesicles (unknown origin) assessed as efflux of chloride anions at 5 mol% after 300 seconds in presence of sodium sulfate by electrode technique. Type of data set: ADME. Conditions: artificial membrane, 5 min.
Data set [8] can be described thus: Anionophoric activity across egg yolk phosphatidylcholine-based liposomal membrane vesicles (unknown origin) assessed as induction of pH discharge at 3 mol% after 20 mins in presence of I- by fluorescence based pyranine entrap assay. The note with it: artificial membrane.
Data set [9] is described as follows: Anionophoric activity across egg yolk phosphatidylcholine-based liposomal membrane vesicles (unknown origin) assessed as relative chloride efflux measured as ratio of intrinsic rate constant and dissociation constant of self-association process after 300 seconds in presence of sodium nitrate in external solution by electrode technique. In kind it is ADME. The note with it: artificial membrane, 5 min.

A short description of data set [10]: Anionophoric activity across egg yolk phosphatidylcholine-based liposomal membrane vesicles (unknown origin) assessed as induction of pH discharge at 3 mol% after 20 mins in presence of Cl- by fluorescence based pyranine entrap assay. The note with it: artificial membrane.
The nature of data set [11]: Anionophoric activity across egg yolk phosphatidylcholine-based liposomal membrane vesicles (unknown origin) assessed as efflux of chloride anions at 3 mol% after 300 seconds in presence of Cs+ by electrode technique. In kind it is ADME. The note with it: artificial membrane, 5 min.
Data set [12] is described as follows: Anionophoric activity across egg yolk phosphatidylcholine-based liposomal membrane vesicles (unknown origin) assessed as efflux of chloride anions at 3 mol% after 300 seconds in presence of K+ by electrode technique. In kind it is ADME. The note with it: artificial membrane, 5 min.
The nature of data set [13]: Anionophoric activity across egg yolk phosphatidylcholine-based liposomal membrane vesicles (unknown origin) assessed as induction of pH discharge at 3 mol% after 20 mins in presence of Br- by fluorescence based pyranine entrap assay. Conditions: artificial membrane.

The values that follow come from ChEMBL document CHEMBL3826873, “Efficient transmembrane anion transport mediated by a bis(imidazolyl)-functionalized bis(choloyl) conjugate” (Bioorg Med Chem Lett, 2016).

Active and inactive are the calls of the source. No cut-off for these calls is given here.

Take `C[C@H](CCC(=O)NC(Cc1cnc[nH]1)C(=O)NCc1ccc(CNC(=O)C(Cc2cnc[nH]2)NC(=O)CC[C@@H](C)[C@@H]2CC[C@@H]3[C@@H]4[C@@H](C[C@@H](O)[C@]32C)[C@]2(C)CC[C@H](O)C[C@@H]2C[C@@H]4O)cc1)[C@H]1CC[C@H]2[C@@H]3[C@H](O)C[C@@H]4C[C@H](O)CC[C@]4(C)[C@H]3C[C@H](O)[C@]12C` (some centres undefined): the Activity result was “Active” in [1]; “Active” in [2]; “Active” in data set [3]; “Dose-dependent effect” in data set [4]; “Active” in data set [6]; “Active” in data set [7]. For the same compound, the outcome in data set [8], in data set [10], in [11], in data set [12] and in data set [13] was Active. Moreover, the outcome in data set [5] was Active. Further, the Ratio in [9] is recorded as 1.45 ×10⁻² /s.

`C[C@H](CCC(=O)NCc1ccc(CNC(=O)CC[C@@H](C)[C@H]2CC[C@H]3[C@@H]4[C@H](O)C[C@@H]5C[C@H](O)CC[C@]5(C)[C@H]4C[C@H](O)[C@]23C)cc1)[C@H]1CC[C@H]2[C@@H]3[C@H](O)C[C@@H]4C[C@H](O)CC[C@]4(C)[C@H]3C[C@H](O)[C@]12C`: in data set [4], the Activity entry is on record as “Not Active”.
